Measured values as given in PMC6468270, “Recognition of ASF1 by Using Hydrocarbon‐Constrained Peptides” (Chembiochem, 2019).
Values joined by “and” are separate entries in the source; they are usually repeats but may differ in a detail not shown here. Equal entries are not always repeated. Where two headings read alike, the source gives them in different places. Starred links: 1 amine or outer side, 2 acyl side, 3 side chain; linkers in the order of their positions; H or OH if unused. Positions of bridges follow the written chain, without caps; N, C: chain ends. Non-standard residues stand in square brackets, D forms with d. Residues, ends and D or L forms follow the SMILES beside them. Nle(6-ylidene) = O=C([C@H](CCCC=[*:3])N[*:1])[*:2]

Assays:
trypsin = assay: Proteolysis assay with trypsin; type: in vitro ADME
Procedure: (§1) The proteolytic stability of the peptides was also investigated by using trypsin and proteinase K. The unconstrained H3_118–135 was cleaved within 14 minutes by both proteases (Figure 4, Table 2 and the Supporting Information), whereas the constrained peptides had increased stability depending on the position of the constraint. […]
(§2) The experiment wells contained aqueous buffer (50 mM Tris, pH 8, 100 mM NaCl, 170 µL) to which peptide solution (10 µL, 1 mM in H2O) and enyzme solution (20 µL 0.5 µg/ml trypsine or 20 µL 1 µg/ml proteinase K) was added. Final concentrations in the experiment wells were 50 µM peptide, 0.05 µg/ml trypsine or 0.1 µg/ml proteinase K. A control experiment was started at the same time without the enzymes. 10 µL aliqouts of the reaction were quenched at different time-points using 90 µL 2% TFA solution. Samples were measured using LC-ESI-MS on a Bruker Maxis impact mass spectrometer equipped with a Thermo Ultimate 3000 UPLC. All samples were run on an Acquity BEH C4 column using a gradient of 1-90% B (A: H2O + 0.1 % formic acid, B: ACN + 0.1 % formic acid) over 4 minutes.
(§3) Intact peptide content was determined relative to the t=0 time-point based on HPLC peak areas. Curves were fitted using an exponential decay function in Origin Pro 9.

[1] = Circular dichroism (CD), % helicity; type: physicochemical; conditions: 100 μM peptide in 40 mM sodium phosphate, pH 7.5, 293 K, scans in duplicate
Procedure: The helical character of all three peptides was investigated by using circular dichroism (CD) in both 40 mM phosphate buffer and trifluoroethanol (TFE). […] (Figure 2).
Circular Dichroism was performed on an Applied Photophysics ChiraScan Apparatus and Software.
For each scan, the following parameters were used: 180-260 nm range; point time 1 s; 1 nm per point; step = 1; bandwidth 4.3 nm; path length 1 mm; temperature 20 °C. Scans were done in duplicate.
Samples were dissolved in 4 0 mM sodium phosphate b uffer pH 7.50 at concentration of 100 μM.
Where θ = circular dichroism at a given wavelength, c = molar concentration, l = path length in cm, R = number of residues in the peptide sequence.
Figure ESI 1. Conformational analyses of histone H3 variant peptides by circular dichroism (CD) analyses (peptide concentration =100 μM, 40 mM sodium phosphate (or 40 mM sodium phosphate/ […]
(§4) Expression and Purification of ASF-1
(§5) Recombinant human ASF1 (ASF1A(1-156)) was purified as already described from expression in E. coli of a (His)6–GST –Tev site–Asf1 fusion protein using the pETM30 plasmid. Briefly, soluble (His)6-tagged GST fusion protein was purified on reduced glutathione (GSH) agarose beads (Sigma).
(§6) After cleavage with recombinant (His)6-TEV protease at room temperature overnight, the (His)6-GST tag and the protease were trapped in a Ni-NTA agarose column (Qiagen). The flow-through fraction containing ASF1 proteins was further purified by anion exchange chromatography using a Resource Q 6mL column (GE Healthcare). ASF1 was then concentrated using an Amicon device (Millipore) and the buffer was replaced with a 50mM Tris-HCl (pH7.5). Unlabled ASF1 used for ITC experiments was purified from pellets of bacteria grown in LB medium, and uniformly labelled ASF1 from bacteria gown in M9 minimal media supplemented with (15NH4)Cl (Eurisotop,0.5 g.l−1) as the sole nitrogen source.
(§7) (1 picture or pasted object on this page, not shown here)

ASF1A(1–156) [2] = molecular target: T1, ASF1A(1–156) (Homo sapiens, UniProt Q9Y294); assay: NMR chemical-shift-perturbation study with 15N labelled ASF1A(1–156); type: binding; conditions: uniformly 15N labelled ASF1A(1–156), mapped on PDB 2IIJ
T1 construct: Recombinant human ASF1 (ASF1A(1-156)) was purified as already described; (His)6-GST-TEV site (N, cleaved yes); made in house; host or cells: E. coli (pETM30 plasmid)
T1 sequence (Q9Y294 1-156): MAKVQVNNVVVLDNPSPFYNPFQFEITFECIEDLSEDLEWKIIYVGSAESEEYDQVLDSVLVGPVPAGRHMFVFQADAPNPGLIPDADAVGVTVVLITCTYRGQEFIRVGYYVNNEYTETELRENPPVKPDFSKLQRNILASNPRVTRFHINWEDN
Procedure: In order to confirm the binding mode of the constrained peptides with ASF1, chemical‐shift‐perturbation studies were carried out for all three peptides (Figure S2) by using uniformly ^15N labelled ASF1A(1–156). The chemical‐shift variation was mapped onto the protein structure of ASF1A–H3 (PDB ID: 2IIJ). All three peptides induced the highest values of chemical‐shift variation and a “slow‐exchange” regime for the ASF1 residues defining the already well characterised H3 binding site (V45–E51, V90–I97, R108–Y111, V146–T147),37, 45 thus confirming the preservation of the specific binding mode for the constrained peptides.

ASF1A(1–156) [3] = molecular target: T1, ASF1A(1–156); assay: Isothermal titration calorimetry (ITC) of peptide binding to ASF1; conditions: 20°C, 50mM Tris-HCl pH 7.5, protein 10µM, peptide 200µM, at least in duplicate
Procedure: Binding of the peptides to ASF1 was then assessed by isothermal titration calorimetry (ITC; Figure 3, Table 1). […] Strikingly, the binding potency was similar in all three cases, ΔG=−7.3 to −8.0 kcal M ^−1, despite H3_118–135(St123–127)GCA adopting a more helical conformation and therefore presumably being more pre‐organised towards ASF1 recognition. Analyses of the thermodynamic determinants of binding reveal enthalpy–entropy compensation. […] In contrast, for the more helical peptide, H3_118–135(St123–127)GCA, the entropy of binding (TΔS=3.1 kcal M ^−1) was favourable, consistent with the anticipated effect of pre‐organisation; however, the enthalpy of binding (ΔH=−4.2 kcal M ^−1) was less favourable than for the less helical variants. […] Such an effect might arise because the less helical peptides H3_118–135 and H3_118–135(St120–124) form enthalpically favourable backbone hydrogen bonds upon a change in conformation to the helix, whereas the more pre‐organised helix H3_118–135(St123–127)GCA neither gains new hydrogen bonds nor undergoes an entropically costly change in conformation on binding ASF1. Alternatively, differential changes in the solvation of the peptides upon binding could account for such a difference in thermodynamic signature. Either way, the results underscore a limitation in correlating conformational stability against binding potency for the unconstrained (H3_118–135) and constrained (H3_118–135(St123–127)GCA) peptides; although the helical conformation is preferred for H3_118–135(St123–127)GCA, this can be considered as arising from an increase in energy (or destabilisation) of nonhelical conformations for this sequence as opposed to preorganisation of the wild‐type sequence. […]
as §4, §5, §6, §7
Isothermal Titration Calorimetry
All IsoThermal Calorimetry (ITC) experiments were performed in a VP-ITC titration calorimeter (Microcal/Malvern) at 20°C, in a 50mM Tris-HCl pH 7.5 buffer. Protein and peptides concentrations were set to values 10µM and 200µM, respectively. Protein and peptide samples were prepared in the same buffer and degassed (ThermoVac, Malvern). After equilibrating the cell at […], the rotating syringe (310rpm) injected at intervals of 280s, 6µL aliquots of peptide solution into the Asf1 previously introduced in the sample cell until saturation was observed. Raw ITC data were processed with the Origin 7.0 Software (OriginLab, Malvern) using the One-Set of Sites fitting model. All ITC experiments were performed at least in duplicate. […]
as §3

proteinase K [4] = molecular target: proteinase K (Parengyodontium album, UniProt P06873); assay: Proteolysis assay with proteinase K; type: in vitro ADME; conditions: 50 mM Tris, pH 8, 100 mM NaCl, room temperature, LC-ESI-MS
proteinase K (Parengyodontium album, UniProt P06873), sequence (P06873 106-384, species assumed): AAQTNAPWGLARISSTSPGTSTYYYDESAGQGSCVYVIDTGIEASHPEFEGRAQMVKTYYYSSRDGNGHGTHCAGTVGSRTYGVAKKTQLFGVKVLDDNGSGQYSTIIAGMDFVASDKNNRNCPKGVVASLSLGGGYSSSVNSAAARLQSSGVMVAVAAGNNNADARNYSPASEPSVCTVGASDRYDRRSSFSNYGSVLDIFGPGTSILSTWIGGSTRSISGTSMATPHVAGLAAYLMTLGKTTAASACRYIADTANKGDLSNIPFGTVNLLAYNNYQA
Procedure: as §1, §2, §3

proteinase K [5] = assay: Proteolysis assay with proteinase K; type: in vitro ADME; conditions: Tritirachium album (Parengyodontium album); fitted half-life; 50 mM Tris, pH 8, 100 mM NaCl, room temperature, 50 M peptide, 0.1 g/ml proteinase K (µ lost in print); LC-ESI-MS, intact peptide relative to t=0, exponential decay fit; read-out: Proteinase K t 1/2
Procedure: as §1, §2, §3

ASF1A(1–156) [6] = molecular target: T2, ASF1A(1–156) (UniProt Q9Y294 1-156, uniformly 15N labelled (in the chemical-shift-perturbation study only)); assay: ITC; H3 peptides with ASF1A(1–156); exothermic, fitted to a 1:1 binding isotherm; conditions not shown; conditions: both partners purified
T2 construct: ASF1A (anti-silencing function 1A), histone chaperone, conserved N-terminal domain, residues 1-156; The same construct limits as in PDB 2IIJ; also called anti-silencing function 1
T2 sequence (Q9Y294 1-156): as the sequence (Q9Y294 1-156) above

[7] = trypsin, fitted half-life, 50 mM Tris, pH 8, 100 mM NaCl, room temperature, 50 M peptide, 0.05 g/ml trypsine (µ lost in print), LC-ESI-MS, intact peptide relative to t=0, exponential decay fit, read-out: Trypsin t 1/2

With Ac-GAMGKDIQLARRIRGERA-NH2 [H3_118–135] the half-life at 50 µM (trypsin; isolated enzyme trypsin, pH 8) was 13.3 ± 1.5 min, the “% helicity” value [1] was 15% and the “chemical-shift variation at the B domain binding site (S59–F72) of ASF1 (nonspecific binding)” value (shortened to “chemical-shift variation”) (ASF1A(1–156) [2]) was “exhibited chemical‐shift variations”. For the same molecule, the TΔS (ASF1A(1–156) [3]) was −6.4 to −6.7 kcal M ^−1 and −6.4±0.51 kcal M ^−1, the ΔG (ASF1A(1–156) [3]) was −8.0±0.14 kcal M ^−1 and the ΔH (ASF1A(1–156) [3]) was −14.4 to −15.0 kcal M ^−1 and −14.4±0.37 kcal M ^−1. The “time within which peptide was cleaved by proteinase K” value (proteinase K [4]) was at most 14 min and the half-life at 50 µM (proteinase K [5]) was 12.2 ± 0.8 min.

For CC[C@H](C)[C@H](NC(=O)[C@H](CCCNC(=N)N)NC(=O)[C@H](CCCNC(=N)N)NC(=O)[C@@H]1CCCC=CCCC[C@H](NC(=O)[C@H](CCCCN)NC(=O)CNC(=O)[C@H](CCSC)NC(=O)[C@H](C)NC(=O)CNC(C)=O)C(=O)N[C@@H]([C@@H](C)CC)C(=O)N[C@@H](CCC(N)=O)C(=O)N[C@@H](CC(C)C)C(=O)N1)C(=O)N[C@@H](CCCNC(=N)N)C(=O)NCC(=O)N[C@@H](CCC(=O)O)C(=O)N[C@@H](CCCNC(=N)N)C(=O)N[C@@H](C)C(=O)NCC(=O)N[C@@H](CS)C(=O)N[C@@H](C)C(N)=O [H3_118–135(St123–127)GCA] (Ac-GAMGK[Nle(6-ylidene)]IQL[Nle(6-ylidene)]RRIRGERAGCA-NH2; staple 6-10), the half-life at 50 µM (trypsin; [7]) was 40.5 ± 16.9 min, the “% helicity” value [1] was 29% and the “chemical-shift variation” value (ASF1A(1–156) [2]) was “no chemical‐shift variation”. For the same molecule, the TΔS (ASF1A(1–156) [3]) was 3.1 kcal M ^−1 and 3.1±0.2 kcal M ^−1, the ΔG (ASF1A(1–156) [3]) was −7.3±0.05 kcal M ^−1 and the ΔH (ASF1A(1–156) [3]) was −4.2 kcal M ^−1 and −4.2±0.08 kcal M ^−1. It also gave a half-life at 50 µM (proteinase K [5]) of 23.1 ± 2.6 min.

For CC[C@H](C)[C@H](NC(=O)[C@H](CCCNC(=N)N)NC(=O)[C@H](CCCNC(=N)N)NC(=O)[C@H](C)NC(=O)[C@H](CC(C)C)NC(=O)[C@H](CCC(N)=O)NC(=O)[C@@H]1CCCC=CCCC[C@H](NC(=O)[C@H](C)NC(=O)CNC(C)=O)C(=O)NCC(=O)N[C@@H](CCCCN)C(=O)N[C@@H](CC(=O)O)C(=O)N1)C(=O)N[C@@H](CCCNC(=N)N)C(=O)NCC(=O)N[C@@H](CCC(=O)O)C(=O)N[C@@H](CCCNC(=N)N)C(=O)N[C@@H](C)C(N)=O [H3_118–135(St120–124)] (Ac-GA[Nle(6-ylidene)]GKD[Nle(6-ylidene)]QLARRIRGERA-NH2; staple 3-7), the half-life at 50 µM (trypsin; [7]) was 14.9 ± 2.5 min, the “% helicity” value [1] was 20% and the “chemical-shift variation” value (ASF1A(1–156) [2]) was “exhibited chemical‐shift variations”. It also gave a ΔG (ASF1A(1–156) [3]) of −8.3±0.07 kcal M ^−1 and a half-life at 50 µM (proteinase K [5]) of 65.8 ± 15.7 min.

B1: H3_(118–135) (peptide, UniProt P68431 119-136, looked up)
peptide: TIMPKDIQLARRIRGERA
notes: histone H3, C-terminal helix peptide, residues 118-135; also called histone H3(118–135); unconstrained H3_(118–135); source: synthetic peptide (solid-phase peptide synthesis)
In the case of B1, the Kd (ASF1A(1–156) [6]) is reported as 1.34 ± 0.33 µM, the dH (ASF1A(1–156) [6]) is reported as -14.4 ± 0.37 kcal/M and the “stoichiometry N” value (ASF1A(1–156) [6]) is reported as 0.94 ± 0.04.
